Test: Color development of photochromic cured product (color density, maximum absorption wavelength), xenon lamp 120 seconds
Assay type: physicochemical
Protocol: To 100 parts by weight of a polymerizable monomer consisting of 45 parts by weight of 4G, 45 parts by weight of 3PG, 9 parts by weight of GMA and 1 part by weight of MSD were added 0.05 part by weight of fulgimide compound I-(1) and 1 part by weight of Perbutyl ND as a polymerization catalyst. The solution was stirred thoroughly until the content thereof was completely dissolved. The solution was poured into a mold constituted by a glass plate and a gasket composed of an ethylene-vinyl acetate copolymer. The mold was placed in an air oven and the solution therein was subjected to polymerization at 35 to 90° C. for 20 hours. After the completion of the polymerization, the obtained photochromic cured product was removed from the glass plate of the mold.
The obtained photochromic cured product having a thickness of 2 mm was exposed to the light emitted from a xenon lamp, model L-2480 (300 W) SHL-100, manufactured by Hamamatsu Photonics, through Aero Mass Filter (a product of Corning Co.), at 20±1° C. for 120 seconds at a beam intensity (on the polymer surface of 365 nm=2.4 mW/cm^2 and 254 nm=24 μW/cm^2, whereby the cured product was allowed to develop a color. A value [ε (120 seconds)-ε (0 seconds)] was calculated and taken as the "color density" of the developed color. In the above expression, ε (120 seconds) is an absorbance at maximum absorption wavelength after 120 seconds of irradiation, and ε (0 seconds) is an absorbance at maximum absorption wavelength under no irradiation. […]
The procedure of Example 15 was repeated except that the composition of the polymerizable monomer was changed as shown in Table 2. […]

[1] = Ex. 29, monomers 4G:65,3G:15,GMA:9,MS:8,HEMA:2,MSD:1
[2] = Ex. 30, monomers BR-MA:20,BzMA:25,3PG:37,GMA:9,MS:8,MSD:1
[3] = Ex. 31, monomers BPE-100N:45,3G:37,GMA:9,MS:8,MSD:1
[4] = maximum absorption wavelength, monomers 3PG:45,4G:45,GMA:9,MSD:1
[5] = monomers 3PG:45,4G:45,GMA:9,MSD:1, 0.05 part fulgimide, 2 mm, 20±1° C., 120 seconds irradiation

| SMILES | max [4] | Color density [5] | further results |
| --- | --- | --- | --- |
| COc1ccc(-c2cc3c(s2)C2(C4CC5CC(C4)CC2C5)C2C(=O)N(c4cccc(C#N)c4)C(=O)C2=C3C)cc1 (stereo not drawn) [I-(1), N-(3'-cyanophenyl)-6,7-dihydro-4-methyl-2-(4'-methoxyphenyl)spirobenzothiophenecarboxyimide-7,2'-tricyclo[3.3.1.13,7]decane] | 582 nm | 1.33 Abs | Color density [1]: 1.28 Abs; max [1]: 584 nm; Color density [2]: 1.29 Abs; max [2]: 590 nm; Color density [3]: 1.11 Abs; max [3]: 590 nm; Color density (Ex. 32, monomer 4G:100): 1.41 Abs; max (Ex. 32, monomer 4G:100): 584 nm |
| N#Cc1cccc(N2C(=O)C3=C(C4CC4)c4ccsc4C4(C5CC6CC(C5)CC4C6)C3C2=O)c1 (stereo not drawn) [I-(3), N-(3'-cyanophenyl)-4-cyclopropyl-6,7-dihydrospirobenzothiophenecarboxyimide-7,2'-tricyclo[3.3.1.13,7]decane] | 560 nm | 1.42 Abs |  |
| CC1=C2C(=O)N(c3cccc(S(=O)(=O)c4ccccc4)c3)C(=O)C2C2(c3sccc31)C1CC3CC(C1)CC2C3 (stereo not drawn) [I-(13)] | 564 nm | 1.25 Abs |  |
| CC1=C2C(=O)N(c3cccc(F)c3)C(=O)C2C2(c3sc(C)cc31)C1CC3CC(C1)CC2C3 (stereo not drawn) [I-(9)] | 574 nm | 1.43 Abs |  |
| CC1=C2C(=O)N(CC#N)C(=O)C2C2(c3sc(-c4ccccc4)cc31)C1CC3CC(C1)CC2C3 (stereo not drawn) [Fulgimide compound D, reference compound] | 568 nm | 0.72 Abs |  |
| CC1=C2C(=O)N(C#N)C(=O)C2C2(c3sc(-c4ccccc4)cc31)C1CC3CC(C1)CC2C3 (stereo not drawn) [Fulgimide compound E, reference compound] | 620 nm | 0.74 Abs |  |
| CC(=O)c1cccc(N2C(=O)C3=C(C)c4cc(C)oc4C4(C5CCC4CC5)C3C2=O)c1 (stereo not drawn) [I-(6)] | 525 nm | 1.06 Abs |  |
| CC1=C2C(=O)N(c3cccc(S(C)(=O)=O)c3)C(=O)C2C2(c3occc31)C1CCCC2CCC1 (stereo not drawn) [I-(7)] | 530 nm | 1.20 Abs |  |

Second part, led by results:

| max [4] | Color density [5] | SMILES | further results |
| --- | --- | --- | --- |
| 582 nm | 1.58 Abs | CC1=C2C(=O)N(c3cc(C#N)cc(C#N)c3)C(=O)C2C2(c3sc(-c4ccccc4)cc31)C1CC3CC(C1)CC2C3 (stereo not drawn) [I-(8), N-(3',5'-dicyanophenyl)-6,7-dihydro-4-methyl-2-phenylspirobenzothiophenecarboxyimide-7,2'-tricyclo[3.3.1.13,7]decane] |  |
| 570 nm | 0.64 Abs | CC1=C2C(=O)N(c3ccccc3C#N)C(=O)C2C2(c3sc(-c4ccccc4)cc31)C1CC3CC(C1)CC2C3 (stereo not drawn) [Fulgimide compound B, reference compound] |  |
| 570 nm | 0.63 Abs | CC1=C2C(=O)N(c3ccc(C#N)cc3)C(=O)C2C2(c3sc(-c4ccccc4)cc31)C1CC3CC(C1)CC2C3 (stereo not drawn) [Fulgimide compound C, reference compound] |  |
| 570 nm | 1.25 Abs | CC1=C2C(=O)N(c3cccc(C#N)c3)C(=O)C2C2(c3sc(-c4ccccc4)cc31)C1CC3CC(C1)CC2C3 (stereo not drawn) [I-(2), N-(3'-cyanophenyl)-6,7-dihydro-4-methyl-2-phenylspirobenzothiophenecarboxyimide-7,2'-tricyclo[3.3.1.13,7]decane] |  |
| 572 nm | 1.36 Abs | CC1=C2C(=O)N(c3cccc([N+](=O)[O-])c3)C(=O)C2C2(c3sccc31)C1CC3CC(C1)CC2C3 (stereo not drawn) [I-(5), 6,7-dihydro-4-methyl-N-(3'-nitrophenyl)spirobenzothiophenecarboxyimide-7,2'-tricyclo[3.3.1.13,7]decane] |  |
| 550 nm | 1.14 Abs | COC(=O)c1cccc(N2C(=O)C3=C(C)c4ccsc4C4(C5CC6CC(C5)CC4C6)C3C2=O)c1 (stereo not drawn) [I-(10)] |  |
| 566 nm | 1.22 Abs | CC1=C2C(=O)N(c3cccc(C(F)(F)F)c3)C(=O)C2C2(c3sc(-c4ccccc4)cc31)C1CC3CC(C1)CC2C3 (stereo not drawn) [I-(4), 6,7-dihydro-4-methyl-2-phenyl-N-(3'-trifluoromethylphenyl)spirobenzothiophenecarboxyimide-7,2'-tricyclo[3.3.1.13,7]decane] |  |
| 567 nm | 1.22 Abs | CC1=C2C(=O)N(c3cccc(S(=O)O)c3)C(=O)C2C2(c3sccc31)C1CC3CC(C1)CC2C3 (stereo not drawn) [I-(12)] |  |
| 562 nm | 1.12 Abs | CC1=C2C(=O)N(c3cccc(C(=O)Oc4ccccc4)c3)C(=O)C2C2(c3sccc31)C1CC3CC(C1)CC2C3 (stereo not drawn) [I-(14)] |  |
| 555 nm | 0.51 Abs | CC1=C2C(=O)N(c3ccccc3)C(=O)C2C2(c3sc(-c4ccccc4)cc31)C1CC3CC(C1)CC2C3 (stereo not drawn) [Fulgimide compound A] |  |
| 578 nm | 0.78 Abs | COc1ccc(-c2cc3c(s2)C2(C4CC5CC(C4)CC2C5)C2C(=O)N(CC#N)C(=O)C2=C3C)cc1 (stereo not drawn) [Fulgimide compound F, reference compound] |  |
| 563 nm | 1.18 Abs | CC1=C2C(=O)N(c3cccc(C(=O)c4ccccc4)c3)C(=O)C2C2(c3sccc31)C1CC3CC(C1)CC2C3 (stereo not drawn) [I-(11)] |  |
